Data as given in PubChem BioAssay (NCI).
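Values below derive from 48-hour exposures of cells grown in 96-well plates, with endpoints linearly interpolated between the two concentrations bracketing the appropriate inhibition level. Abbreviation: GI50, concentration required for 50% inhibition of growth. The concentration for full growth arrest is given as TGI.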

How the values were obtained:
Experiment in all cases: NCI anticancer screen, dose series, 48 h
[1] = tested on: UO-31 renal
[2] = tested on: OVCAR-3 ovarian
[3] = tested on: M14 melanoma
[4] = tested on: NCI-H460 lung
[5] = tested on: U251 CNS
[6] = tested on: SR leukemia
[7] = tested on: SNB-75 CNS
[8] = tested on: CCRF-CEM leukemia
[9] = tested on: OVCAR-8 ovarian
[10] = tested on: HOP-92 NSCLC

Row | SMILES | GI50 [1] [nM] | TGI [1] [µM] | GI50 [2] [nM] | TGI [2] [nM] | GI50 [3] [nM] | TGI [3] [nM] | GI50 [4] [nM] | TGI [4] [µM] | GI50 [5] [nM] | TGI [5] [µM] | GI50 [6] [µM] | TGI [6] [µM] | GI50 [7] [µM] | TGI [7] [µM] | GI50 [8] [nM] | TGI [8] [µM] | GI50 [9] [nM] | TGI [9] [µM] | GI50 [10] [nM] | TGI [10] [µM]
1 | CCSc1ccc(C2C(Br)C(=O)N2c2cc(OC)c(OC)c(OC)c2)cc1 (stereo not given) | 342 | 15.5 | 109 | 730 | 128 | 2120 | 539 | 14.2 | 345 | 39.8 | 0.0765 | 26.3 | 0.509 | > 100 | 278 | 18.2 | 403 | 51.8 | 443 | 14.1
2 | CCN(c1cc(C#CCN2CCOCC2)cc(C(=O)NCc2c(C)cc(C)[nH]c2=O)c1C)C1CCC(N(C)CCOC)CC1 (stereo not given) | > 100000 | > 100 | > 100000 | > 100000 | > 100000 | > 100000 | > 100000 | > 100 | > 100000 | > 100 | 27 | > 100 | 53.1 | > 100 | > 100000 | > 100 | > 100000 | > 100 | > 100000 | > 100
